Like-named read-outs stand apart in the source and are kept apart here.
Key:
[1] = Particle size analysis (D50, D90) of nano-suspensions by dynamic light scattering; type: physicochemical; settings: 90 minutes, PVP-K29-32/SDS in water
[2] = 90 minutes
Protocol: Example nano-suspensions were evaluated for particle size and particle size distribution using dynamic light scattering (DLS, Wyatt, DyanoPro Plate Reader). Results reported for particle size analysis (D50 and D90) have their ordinary meaning as understood in the art of particle-size analysis. Unless otherwise indicated, values for D50 and D90 are reported in nanometers (nm). The APC in example nano-suspensions was evaluated using high performance liquid chromatography (HPLC, Hewlett Packard, Agilent 1100). Residual metals analysis was performed using inductively coupled plasma mass spectroscopy (ICP-MS, Perkin Elmer).
The temperature of each nano-suspension was determined using a thermometer immediately after the milling time was completed. Particle size and metals content were analyzed as described herein. The nano-suspension product produced in each operation was recovered through centrifuge filtration over a 10 micron polypropylene mesh (Nanomill) or through a syringe equipped with a 20-gauge needle (acoustic mixer). In the case of the nano-suspension prepared with acoustic mixing, the YTZ milling media is sufficiently dense that it settles from the nano-suspension and permits separation by decantation without the need for separation through a mesh.

- Drug nanoparticle diameter (D50) ([1]; Elan Nanomill high-shear milling, polystyrene milling beads): 354 nm
- Drug nanoparticle diameter (D50) ([1]; Resodyn LabRAM acoustic mixer, YTZ milling beads): 286 nm
- Residual Metals ([2]; Elan Nanomill high-shear milling): >1000 ppm
- Residual Metals ([2]; Resodyn LabRAM acoustic mixer): <1 ppm
Compound: COc1ccc2cc([C@H](C)C(=O)O)ccc2c1 [Naproxen sodium]
